Measurements from PubChem BioAssay (NCI).
“And” between values parts separate entries of the source, which are not always exact repeats. Identical values can stand only once.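 Exposure lasted 48 hours, with cells grown in 96-well plates and compounds tested at five concentrations. Abbreviation: GI50, concentration required for 50% inhibition of growth. TGI marks complete inhibition of growth.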

Legend:
Experiment in all cases: NCI tumour cell line growth inhibition, 48 h
T-47D breast = test system: T-47D breast
CAKI-1 renal = test system: CAKI-1 renal
RPMI-8226 leukemia = test system: RPMI-8226 leukemia
U251 CNS = test system: U251 CNS
HS 578T breast = test system: HS 578T breast
IGROV1 ovarian = test system: IGROV1 ovarian
KM12 colon = test system: KM12 colon
OVCAR-8 ovarian = test system: OVCAR-8 ovarian
OVCAR-4 ovarian = test system: OVCAR-4 ovarian
SK-MEL-5 melanoma = test system: SK-MEL-5 melanoma

| SMILES | GI50 (T-47D breast) | TGI (T-47D breast) | GI50 (CAKI-1 renal) | TGI (CAKI-1 renal) | GI50 (RPMI-8226 leukemia) | TGI (RPMI-8226 leukemia) | GI50 (U251 CNS) | TGI (U251 CNS) | GI50 (HS 578T breast) | TGI (HS 578T breast) | GI50 (IGROV1 ovarian) | TGI (IGROV1 ovarian) | GI50 (KM12 colon) | TGI (KM12 colon) | GI50 (OVCAR-8 ovarian) | TGI (OVCAR-8 ovarian) | GI50 (OVCAR-4 ovarian) | TGI (OVCAR-4 ovarian) | TGI (SK-MEL-5 melanoma) | GI50 (SK-MEL-5 melanoma) |
| --- | --- | --- | --- | --- | --- | --- | --- | --- | --- | --- | --- | --- | --- | --- | --- | --- | --- | --- | --- | --- |
| COC(=O)c1c(-c2cccs2)oc(-c2cccs2)c1C(=O)OC | 28500 nM | > 100 µM | 26.7 µM | 69.3 µM | 13100 nM | 92.7 µM | 59.6 µM | > 100 µM | 35.8 µM | > 100 µM | 36.2 µM | > 100 µM | 32.5 µM | > 100 µM | 37.6 µM | > 100 µM | 77.8 µM | > 100 µM |  |  |
| CCCCCCCC1(c2ccc(N)cc2)CCC(=O)NC1=O (stereo unspecified) |  |  |  | > 100 µM |  | 40.8 µM |  |  |  |  |  | > 100 µM |  | > 100 µM |  | > 100 µM |  | > 100 µM | 49.6 µM |  |
| Cc1ccc(NC(=O)C(=O)CC(=O)c2c(C)n([O-])c3ccccc3[n+]2=O)cc1C |  |  |  | > 100 µM |  | > 100 µM |  | > 100 µM |  |  |  | > 100 µM |  | > 100 µM |  | > 100 µM |  | > 100 µM | > 100 µM |  |
| Clc1ccc(-c2c3ccc(=[N+]4CCCCC4)cc-3oc3cc(N4CCCCC4)ccc23)cc1 |  |  |  |  |  |  |  |  |  |  |  |  |  |  |  |  |  |  | 0.291 µM | 156 nM |
| CCC[CH2][Sn]([CH2]CCC)([S]C#N)[S]C#N |  |  | 0.32 µM | 1.87 µM | 229 nM | 1.34 µM | 0.768 µM | 2.04 µM |  |  | 1.27 µM | 2.78 µM | 1.45 µM | 3.11 µM | 1.53 µM | 3.54 µM | 1.34 µM | 2.74 µM | 1.76 µM | 483 nM |
| N#CC(C(=O)CCCC(=O)Nc1ccc(Cl)cc1Cl)c1ccccc1 (stereo unspecified) |  |  |  | > 100 µM |  |  |  | > 100 µM |  |  |  | > 100 µM |  | > 100 µM |  | > 100 µM |  | > 100 µM | > 100 µM |  |
| Cc1ccc(C)c(N2C(=O)C(=O)C(c3nc4ccccc4o3)C(=O)C2=O)c1 |  |  |  | > 100 µM |  |  |  | > 100 µM |  |  |  | > 100 µM |  | > 100 µM |  | > 100 µM |  | > 100 µM | > 100 µM |  |
| N#CC1=C(N)Oc2c(ccc3ccccc23)C1c1cc(=O)oc2ccc(Cl)cc12 (stereo unspecified) | 646 nM | 24.1 µM |  |  | 1680 nM | 20 µM | 0.535 µM | 20.2 µM | 0.656 µM | 47.2 µM | 0.873 µM | > 100 µM | 0.453 µM | 31.4 µM | 1.87 µM | 24 µM | 4.31 µM | > 100 µM | 14.4 µM | 484 nM |
| CCCCCC(O)C(O)CCC[C@H](O)[C@H]1CC[C@H]([C@H]2CC[C@H]([C@H](O)CCCCCCCCCCCCC3=C[C@H](C)OC3=O)O2)O1 (stereo partly specified) | 2120 nM | 25.6 µM | 15.3 µM | 36.5 µM |  | 4.51 µM | 8.47 µM | > 100 µM |  |  | 7.46 µM | 29.4 µM | 9.78 µM | 29.1 µM | 7.24 µM | > 100 µM |  | 24.1 µM | 3.82 µM and 3.07 µM |  |
| CC(=O)OC12C=C(C)C(C(C)C1)C1C(=O)N(CCN3CCCCC3)C(=O)C12 (stereo unspecified) | > 50000 nM | > 50 µM | > 50 µM | > 50 µM |  |  | > 50 µM | > 50 µM | 48 µM | > 50 µM | > 50 µM | > 50 µM | > 50 µM | > 50 µM | > 50 µM | > 50 µM | > 50 µM | > 50 µM | > 50 µM | > 50000 nM |
